Reference: patent US12319679B2, “Morpholinyl, piperazinyl, oxazepanyl and diazepanyl O-glycoprotein-2-acetamido-2-deoxy-3-d-glucopyranosidase inhibitors” (BIOGEN MA INC., priority 2018, dated 2025)
Structures can show the parent of a compound that is named as a salt.

Biological target: T1, Recombinant full length human OGA enzyme (Homo sapiens, UniProt O60502)
T1 construct: Recombinant full length human OGA enzyme was purchased from Origene; purchased Origene
T1 sequence (O60502 1-916): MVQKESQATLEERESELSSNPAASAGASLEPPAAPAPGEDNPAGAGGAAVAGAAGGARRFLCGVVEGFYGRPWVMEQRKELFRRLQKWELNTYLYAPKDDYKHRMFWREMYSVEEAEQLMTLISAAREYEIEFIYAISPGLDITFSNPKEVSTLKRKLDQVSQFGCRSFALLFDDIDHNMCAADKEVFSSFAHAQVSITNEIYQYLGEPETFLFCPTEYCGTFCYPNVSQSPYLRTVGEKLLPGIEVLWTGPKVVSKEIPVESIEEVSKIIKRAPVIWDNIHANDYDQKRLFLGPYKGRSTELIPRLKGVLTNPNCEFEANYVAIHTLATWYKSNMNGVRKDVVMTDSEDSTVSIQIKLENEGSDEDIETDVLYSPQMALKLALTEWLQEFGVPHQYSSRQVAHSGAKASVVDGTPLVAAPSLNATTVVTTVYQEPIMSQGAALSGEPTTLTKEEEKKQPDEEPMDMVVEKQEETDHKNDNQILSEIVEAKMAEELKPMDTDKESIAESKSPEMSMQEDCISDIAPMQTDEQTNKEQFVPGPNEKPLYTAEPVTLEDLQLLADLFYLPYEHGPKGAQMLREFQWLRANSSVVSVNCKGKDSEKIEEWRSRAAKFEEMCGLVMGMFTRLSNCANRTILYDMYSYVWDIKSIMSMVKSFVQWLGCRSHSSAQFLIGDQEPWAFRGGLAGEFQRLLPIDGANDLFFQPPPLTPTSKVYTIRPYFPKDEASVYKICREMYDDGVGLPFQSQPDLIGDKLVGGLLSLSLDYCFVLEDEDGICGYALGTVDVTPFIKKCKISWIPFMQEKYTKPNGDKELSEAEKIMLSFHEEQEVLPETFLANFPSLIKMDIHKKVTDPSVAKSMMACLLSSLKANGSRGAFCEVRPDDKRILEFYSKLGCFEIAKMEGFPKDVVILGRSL
Experiment: OGA Enzyme Inhibition Biochemical Assay
Details: 1 nM OGA, 100 μM 4-MUGlcNAc (Km), pH 6.4, 90 minutes at room temperature; 10-point dose-response starting from 20 μM
Protocol: OGA Enzyme Inhibition Biochemical Assay
Recombinant full length human OGA enzyme was purchased from Origene. 4-MUGlCNAc substrate was purchased from Sigma. All other reagents were purchased from Sigma or Fisher. Assay buffer consists of the McIlvaine buffer system, pH 6.4 (0.2M Na2HPO4 mixed with 0.1M citric acid) and 0.01% BSA. Reactions consist of 1 nM OGA, 100 μM 4-MUGlcNAc (Km), and compound in a final volume of 10 μl. Reactions were incubated for 90 minutes at room temperature and quenched with 40 μl of 3M glycine, pH 10 and read on a Perkin Elmer Envision plate reader (Ex: 355 nm/Em: 460 nm). Compounds were tested with a 10-point dose-response starting from 20 μM with a 4-fold dilution. Data was fit using GraphPad Prism using a 4-paramter fit with variable slope.

| Compound | IC50 |
| --- | --- |
| CC(=O)Nc1ncc(CN2CCCNC(Cc3ccnc(C)c3)C2)s1 (stereo not shown) [Example 2-27, N-(5-((3-((2-methylpyridin-4-yl)methyl)-1,4-diazepan-1-yl)methyl)thiazol-2-yl)acetamide] | 9.9 µM |
| CC(=O)Nc1ncc(CN2CCN(C)[C@H](Cc3ccc(C)nc3)C2)s1 [Example 4-15, (R)—N-(5-((4-methyl-3-((6-methylpyridin-3-yl)methyl)piperazin-1-yl)methyl)thiazol-2-yl)acetamide] | > 20 µM |
| CC(=O)Nc1ncc(CN2CCCNC(Cc3cc(C)nc(C)c3)C2)s1 (stereo not shown) [Example 2-28, N-(5-((3-((2,6-dimethylpyridin-4-yl)methyl)-1,4-diazepan-1-yl)methyl)thiazol-2-yl)acetamide] | 12 µM |
| CC(=O)Nc1ncc(CN2CCNC(Cc3ccc(C)nc3)C2)s1 (single isomer, unassigned) [Example 4-14 Peak 1] | > 20 µM |
| COc1cc(CC2CN(Cc3cnc(NC(C)=O)s3)CCN2)ccc1F (single isomer, unassigned) [Example 4-6 Peak 2] | 4.1 µM |
| CC(=O)Nc1ncc(CN2CCCOC(Cc3ncc(F)cn3)C2)s1 (single isomer, unassigned) [Example 1-39 Peak 2] | 0.76 µM |
| COc1nccc(CC2CN(Cc3cnc(NC(C)=O)s3)CCN2)c1F (single isomer, unassigned) [Example 4-18 Peak 2] | 1.5 µM |
| COc1cc(CC2CN(Cc3cnc(NC(C)=O)s3)CCCN2)ccn1 (stereo not shown) [Example 2-25, N-(5-((3-((2-methoxypyridin-4-yl)methyl)-1,4-diazepan-1-yl)methyl)thiazol-2-yl)acetamide] | > 20 µM |
| CC(=O)Nc1ncc(CN2CCCN(C)C(Cc3ncc(F)cn3)C2)s1 (stereo not shown) [Example 2-24, N-(5-((3-((5-fluoropyrimidin-2-yl)methyl)-4-methyl-1,4-diazepan-1-yl)methyl)thiazol-2-yl)acetamide] | 12 µM |
| CC(=O)Nc1ncc(CN2CCNC(Cc3ccnc(C)c3)C2)s1 (single isomer, unassigned) [Example 4-8 Peak 1] | 6.7 µM |
| COc1cc(CC2CN(Cc3cnc(NC(C)=O)s3)CCN2)ccn1 (single isomer, unassigned) [Example 2-22 Peak 1] | 18 µM |
| CC(=O)Nc1ncc(CN2CCOCC(Cc3ncc(F)cn3)C2)s1 (single isomer, unassigned) [Example 1-45 Peak 1] | 1.6 µM |
| CC(=O)Nc1ncc(CN2CCN(C)CC(COc3ncc(F)cn3)C2)s1 (stereo not shown) [Example 3-5, N-(5-((6-(((5-fluoropyrimidin-2-yl)oxy)methyl)-4-methyl-1,4-diazepan-1-yl)methyl)thiazol-2-yl)acetamide] | > 20 µM |
| COc1cc(CC2CN(Cc3cnc(NC(C)=O)s3)CCN2C)ccn1 (single isomer, unassigned) [Example 4-12 Peak 2] | > 20 µM |
| COc1cc(CC2CN(Cc3cnc(NC(C)=O)s3)CCN2)ccn1 (single isomer, unassigned) [Example 2-22 Peak 2] | 0.85 µM |
| CC(=O)Nc1ncc(CN2CCN(C)[C@@H](Cc3ccc(C)nc3)C2)s1 [Example 4-16, (S)—N-(5-((4-methyl-3-((6-methylpyridin-3-yl)methyl)piperazin-1-yl)methyl)thiazol-2-yl)acetamide] | 2 µM |

Stronger by IC50, values ahead:

| IC50 | Compound |
| --- | --- |
| 0.043 µM | COc1cc(C[C@@H]2CN(Cc3cnc(NC(C)=O)s3)CCO2)ccn1 [Example 1-3, (R)—N-(5-((2-((2-methoxypyridin-4-yl)methyl)morpholino)methyl)thiazol-2-yl)acetamide] |
| 0.031 µM | CC(=O)Nc1ncc(CN2C[C@@H](Cc3ccc(C)nc3)OC[C@@H]2C)s1 [Example 1-33, N-(5-(((2R,5S)-5-methyl-2-((6-methylpyridin-3-yl)methyl)morpholino)methyl)thiazol-2-yl)acetamide] |
| 0.0051 µM | CC(=O)Nc1ncc(CN2C[C@@H](Cc3ncc(F)cn3)OC[C@@H]2C)s1 [Example 1-26] |
| 0.56 µM | CC(=O)Nc1ncc(CN2CCNC(Cc3ncc(F)cn3)C2)s1 (single isomer, unassigned) [Example 2-20 Peak 1] |
| 0.041 µM | CC(=O)Nc1ncc(CN2C[C@@H](Cc3cc(C)nc(C)n3)N(C)C[C@@H]2C)s1 [Example 2-17] |
| 0.0014 µM | CC(=O)Nc1ncc(CN2C[C@@H](Cc3ccnc(C)c3)OC[C@@H]2C)s1 [Example 1-32, N-(5-(((2R,5S)-5-methyl-2-((2-methylpyridin-4-yl)methyl)morpholino)methyl)thiazol-2-yl)acetamide] |
| 0.019 µM | CC(=O)Nc1ncc(C(C)N2CCO[C@H](Cc3ncc(F)cn3)C2)s1 (single isomer, unassigned) [Example 1-23 Peak 1] |
| 0.16 µM | CC(=O)Nc1ncc(CN2CCO[C@H](Cc3ccc(C)cn3)C2)s1 [Example 1-16, (R)—N-(5-((2-((5-methylpyridin-2-yl)methyl)morpholino)methyl)thiazol-2-yl)acetamide] |
| 0.56 µM | CC(=O)Nc1ncc(CN2CC(C)OC(Cc3ncc(F)cn3)C2)s1 (single isomer, unassigned) [Example 1-35 Peak 1] |
| 0.136 µM | CC(=O)Nc1ncc(CN2CCO[C@H](Cc3ccnc(OC(F)F)c3)C2)s1 [Example 1-17, (R)—N-(5-((2-((2-(difluoromethoxy)pyridin-4-yl)methyl)morpholino)methyl)thiazol-2-yl)acetamide] |
| 0.026 µM | CCN1C[C@H](C)N(Cc2cnc(NC(C)=O)s2)C[C@H]1Cc1ccnc(C)c1 [Example 2-3, N-(5-(((2S,5R)-4-ethyl-2-methyl-5-((2-methylpyridin-4-yl)methyl)piperazin-1-yl)methyl)thiazol-2-yl)acetamide] |
| 0.061 µM | COc1nccc(C[C@@H]2CN(Cc3cnc(NC(C)=O)s3)CCO2)c1C [Example 1-5, (R)—N-(5-((2-((2-methoxy-3-methylpyridin-4-yl)methyl)morpholino)methyl)thiazol-2-yl)acetamide] |
| 0.017 µM | CC(=O)Nc1ncc(CN2C[C@@H](COc3cc(C)nc(C)c3)OC[C@@H]2C)s1 [Example 3-4, N-(5-(((2S,5S)-2-(((2,6-dimethylpyridin-4-yl)oxy)methyl)-5 methylmorpholino)methyl)thiazol-2-yl)acetamide] |
| 0.0098 µM | CC(=O)Nc1ncc(CN2C[C@@H](Cc3ccnc(C)c3)N(C)C[C@@H]2C)s1 [Example 2-2, N-(5-(((2S,5R)-2,4-dimethyl-5-((2-methylpyridin-4-yl)methyl)piperazin-1-yl)methyl)thiazol-2-yl)acetamide] |
| 0.66 µM | CC(=O)Nc1ncc(CN2CCN(C)[C@@H](Cc3ccnc(C)c3)C2)s1 [Example 4-10, (S)—N-(5-((4-methyl-3-((2-methylpyridin-4-yl)methyl)piperazin-1-yl)methyl)thiazol-2-yl)acetamide] |
| 0.35 µM | CC(=O)Nc1ncc(CN2CCN[C@@H](Cc3cc(C)nc(C)c3)C2)s1 [Example 4-2, (S)—N-(5-((3-((2,6-dimethylpyridin-4-yl)methyl)piperazin-1-yl)methyl)thiazol-2-yl)acetamide hydrochloride] |
| 0.057 µM | CC(=O)Nc1ncc(CN2CCCOC(Cc3cc(C)nc(C)c3)C2)s1 (racemic) [Example 1-36, N-(5-((2-((2,6-dimethylpyridin-4-yl)methyl)-1,4-oxazepan-4-yl)methyl)thiazol-2-yl)acetamide] |
| 0.038 µM | CC(=O)Nc1ncc(CN2C[C@@H](COc3cc(C)nc(C)c3)N(C)C[C@@H]2C)s1 [Example 3-2, N-(5-(((2S,5S)-5-(((2,6-dimethylpyridin-4-yl)oxy)methyl)-2,4-dimethylpiperazin-1-yl)methyl)thiazol-2-yl)acetamide] |
| 0.36 µM | CC(=O)Nc1ncc(C(C)N2CCO[C@H](Cc3ncc(F)cn3)C2)s1 (single isomer, unassigned) [Example 1-23 Peak 2] |
| 0.009 µM | CC(=O)Nc1ncc(CN2C[C@@H](Cc3cc(C)nc(C)c3)OC[C@@H]2C)s1 [Example 1-31] |
| 0.2 µM | CC(=O)Nc1ncc(CN2CCN(C)[C@@H](Cc3cc(C)nc(C)c3)C2)s1 [Example 4-4, (S)—N-(5-((3-((2,6-dimethylpyridin-4-yl)methyl)-4-methylpiperazin-1-yl)methyl)thiazol-2-yl)acetamide] |
